The target in the assay is T1, USP5 (ubiquitin-specific protease 5) (Homo sapiens, UniProt P45974).
T1 sequence (P45974 2-858): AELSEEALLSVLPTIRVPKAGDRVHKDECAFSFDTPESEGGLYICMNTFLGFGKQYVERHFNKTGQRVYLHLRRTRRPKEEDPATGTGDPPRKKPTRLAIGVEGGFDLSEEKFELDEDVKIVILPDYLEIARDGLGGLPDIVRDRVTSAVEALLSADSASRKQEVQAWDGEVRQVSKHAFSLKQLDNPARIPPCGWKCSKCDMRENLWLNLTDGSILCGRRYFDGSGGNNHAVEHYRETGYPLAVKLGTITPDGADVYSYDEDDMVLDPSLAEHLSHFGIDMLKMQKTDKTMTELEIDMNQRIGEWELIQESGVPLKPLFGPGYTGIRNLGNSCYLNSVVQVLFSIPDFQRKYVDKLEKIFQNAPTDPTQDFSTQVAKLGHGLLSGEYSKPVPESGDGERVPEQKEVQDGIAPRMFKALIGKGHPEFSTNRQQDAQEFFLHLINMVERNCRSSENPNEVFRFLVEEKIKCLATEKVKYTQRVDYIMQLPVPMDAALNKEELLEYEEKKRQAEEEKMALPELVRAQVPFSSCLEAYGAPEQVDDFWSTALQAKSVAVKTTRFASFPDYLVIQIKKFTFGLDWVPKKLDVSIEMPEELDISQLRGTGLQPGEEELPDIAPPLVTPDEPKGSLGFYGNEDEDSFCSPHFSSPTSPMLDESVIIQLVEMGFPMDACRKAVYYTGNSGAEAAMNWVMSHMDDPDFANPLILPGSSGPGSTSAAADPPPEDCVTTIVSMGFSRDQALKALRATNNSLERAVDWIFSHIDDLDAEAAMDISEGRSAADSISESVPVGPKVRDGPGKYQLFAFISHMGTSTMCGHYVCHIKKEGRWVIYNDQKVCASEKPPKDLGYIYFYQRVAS
As to the kind of experiment: SPR. The format is binding.

Structures are written as SMILES.

By Kd is commonly meant the constant that tells how readily two partners part at equilibrium. Lower therefore signals higher affinity. Regarding `COc1ccc(-c2coc3cc(O)ccc3c2=O)cc1` [Formononetin], the Kd was 25.1 µM.

The record behind these values is PMC6376178 (Theranostics, 2019).
